From the supplement of paper PMC10307832

Experiments:
Assay in all cases: relative viability (nuclei count vs DMSO), 5 days (fraction); higher = more cells survive
[1] = compound: C1=CC2=NC=CN=C2C=C1/C=C/3\C(=O)NC(=O)S3 + C[C@]1(O)C[C@@H](c2nc(-c3ccc4ccc(-c5ccccc5)nc4c3)c3c(N)nccn32)C1 [Linsitinib] (partner 1 µM)
In short: (§1)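 For relative viability, nuclei counts in treated wells were divided by those in vehicle wells. Lung cancer cell lines had been pin-tool dosed in 1536-well plates the day after seeding and cultured for 5 days, then fixed and stained in one step (final 0.05% Triton X-100, 1% formaldehyde, 1 ug/ml Hoechst) and imaged at 4×. Doses were one drug alone or a fixed anchor-drug dose plus five library-drug doses (not always all listed) in √10 steps, and values are duplicate-plate medians.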

[2] = compound: C1=CC2=NC=CN=C2C=C1/C=C/3\C(=O)NC(=O)S3 + Cc1nc(Nc2ncc(C(=O)Nc3c(C)cccc3Cl)s2)cc(N2CCN(CCO)CC2)n1 [Dasatinib] (partner 0.075 µM)
In short: as §1

[3] = compound: C1=CC2=NC=CN=C2C=C1/C=C/3\C(=O)NC(=O)S3 + Nc1nc2[nH]cc(CCc3ccc(C(=O)N[C@@H](CCC(=O)O)C(=O)O)cc3)c2c(=O)[nH]1 [Pemetrexed] (partner 0.2 µM)
In short: as §1

BGJ398 + Lapatinib = compound: CCN1CCN(c2ccc(Nc3cc(N(C)C(=O)Nc4c(Cl)c(OC)cc(OC)c4Cl)ncn3)cc2)CC1 [BGJ398] + CS(=O)(=O)CCNCc1ccc(-c2ccc3ncnc(Nc4ccc(OCc5cccc(F)c5)c(Cl)c4)c3c2)o1 [Lapatinib] (partner 2 µM)
In short: as §1

Cell Line	relative viability ([1]; first compound 0.02 µM)	relative viability ([1]; first compound 0.06325 µM)	relative viability ([1]; first compound 0.2 µM)	relative viability ([1]; first compound 0.6325 µM)	relative viability ([1]; first compound 2 µM)	relative viability ([2]; first compound 0.02 µM)	relative viability ([2]; first compound 0.06325 µM)	relative viability ([2]; first compound 0.2 µM)	relative viability ([2]; first compound 0.6325 µM)	relative viability ([2]; first compound 2 µM)	relative viability ([3]; first compound 0.02 µM)	relative viability ([3]; first compound 0.06325 µM)	relative viability ([3]; first compound 0.2 µM)	relative viability ([3]; first compound 0.6325 µM)	relative viability ([3]; first compound 2 µM)	relative viability (BGJ398 + Lapatinib; first compound 0.01 µM)	relative viability (BGJ398 + Lapatinib; first compound 0.03162 µM)	relative viability (BGJ398 + Lapatinib; first compound 0.1 µM)	relative viability (BGJ398 + Lapatinib; first compound 0.3162 µM)	relative viability (BGJ398 + Lapatinib; first compound 1 µM)
NCI-H2009	1.16	1.26	1.26	1.18	1.2	0.312	0.31	0.358	0.272	0.175	1.05	1.1	1.01	1.01	1.18	0.863	0.966	0.965	0.924	0.955
HCC-15	0.824	0.868	0.912	0.861	0.885	0.665	0.644	0.687	0.55	0.42	0.231	0.217	0.234	0.231	0.218	0.854	0.855	0.82	0.969	0.974
COR-L23	0.874	0.89	0.978	0.861	0.951	0.446	0.481	0.395	0.477	0.344	0.187	0.202	0.202	0.19	0.179	0.887	0.903	1.15	0.992	0.908
HCC-78	0.488	0.517	0.54	0.497	0.403	0.381	0.705	0.517	0.392	0.184	0.925	0.864	0.932	0.838	0.927	0.568	1.04	1	0.707	0.581
NCI-H2087	1.07	0.911	0.996	0.937	0.954	0.761	0.713	0.911	0.857	0.507	0.612	0.734	0.632	0.623	0.615	0.951	0.975	1.09	1.17	0.885
BEN	0.812	0.922	0.899	0.843	0.93	0.362	0.35	0.297	0.352	0.252	0.824	0.813	0.773	0.836	0.644	0.608	0.828	0.7	0.656	0.671
EKVX	0.772	0.845	0.983	0.981	0.945	0.515	0.356	0.701	0.524	0.427	0.337	0.356	0.363	0.438	0.364	0.178	0.199	0.204	0.201	0.169
LXF-289	0.928	0.921	0.993	0.941	0.933	0.192	0.176	0.254	0.215	0.0852	0.841	0.823	0.789	0.908	0.899	0.827	0.85	0.817	0.77	0.7
NCI-H650	1.13	0.922	1.17	0.832	0.731	0.524	0.468	0.561	0.415	0.286	1.03	0.996	1.02	0.864	0.659	0.809	0.906	0.837	0.841	0.597
NCI-H2085	0.807	0.886	0.826	0.806	0.969	0.226	0.212	0.248	0.257	0.213	0.907	0.917	0.92	0.892	0.807	0.744	0.784	0.802	0.677	0.663
NCI-H1793	0.785	0.99	0.747	0.919	0.679	0.407	0.39	0.368	0.354	0.328	0.726	0.74	0.837	0.727	0.715	0.652		0.564	0.402	0.427
LC-2-ad	0.76	0.885	0.784	0.726	0.854	0.843	0.528	0.746	0.622	0.256	0.292	0.286	0.276	0.283	0.279	0.937	1.02	1	0.978	0.912
COR-L 105	0.897	0.949	0.947	0.851	1.03	0.343	0.344	0.376	0.402	0.279	1.13	1.14	1.08	1.12	1.02	0.379	0.303	0.329	0.386	0.382
NCI-H1355	0.805	0.782	0.843	0.79	0.804	0.476	0.599	0.709	0.714	0.47	0.944	1.07	1.1	1	0.939	0.936	1.05	1.01	0.95	0.644
H3255	0.81	0.968	0.967	0.897	0.96	0.365	0.329	0.348	0.379	0.38	0.532	0.559	0.577	0.616	0.533	0.288		0.238	0.241	0.219
NCI-H1993	0.712	0.797	0.751	0.795	0.713	0.516	0.592	0.667	0.581	0.521	0.528	0.665	0.607	0.54	0.449	0.8	0.825	0.87	0.935	0.746
NCI-H1734	0.856		0.853	0.789	0.841	0.463	0.468	0.467	0.41	0.269	0.384		0.427	0.436	0.362	0.992	1.03	1.11	0.961	1.06
HOP-62	1.04	0.982	1.1	1.01	1.06	0.651	0.736	0.605	0.621	0.503	0.319	0.368	0.299	0.355	0.307	0.965	1.16	1.18	1.02	1.04
LOU-NH91	0.982	1.01	0.928	0.954	0.97	0.568	0.597	0.551	0.525	0.354	0.376	0.326	0.391	0.399	0.407	0.733	0.771	0.731	0.727	0.688
NCI-H2228	0.622	0.447	1.08	0.55	0.609	0.414	0.448	0.47	0.389	0.388	0.358	0.34	0.332	0.293	0.321	1.01	1.24	0.742	1	1.04
PC-14	0.88	0.952	0.994	1.02	0.993	0.287	0.207	0.301	0.265	0.238	0.138	0.148	0.156	0.131	0.145	0.282	0.255	0.352	0.251	0.31
NCI-H1437	0.899	1.2	1.05	0.979	0.969	0.656	0.353	0.406	0.353	0.174	0.345	0.291	0.293	0.289	0.265	0.829	0.762	0.905	0.729	0.644
NCI-H460	0.718	1.32	0.787	0.687	0.872	0.53	0.782	0.477	0.362	0.0894	0.0621	0.0629	0.071	0.058	0.0661	1.02	1.05	1.6	1	1.23
NCI-H1666	0.789	0.848	0.807	0.843	0.911	0.716	0.835	0.772	0.819	0.575	0.898	0.548	0.838	0.96	0.759	0.656	0.704	0.508	0.7	0.255
NCI-H1651	0.894	1.03	0.989	0.916	0.939	0.403	0.452	0.461	0.311	0.21	0.53	0.474	0.582	0.589	0.518	0.796	0.897	0.962	0.693	0.676
NCI-H1755	0.927	0.995	1.02	0.978	0.979	0.43	0.371	0.448	0.355	0.257	0.394	0.404	0.465	0.428	0.444	1.01	1.04	1.05	1.01	1.01
NCI-H661	0.59	0.501	0.606	0.583	0.56	1.03	1.12	0.935	0.748	0.722	0.94	1	0.982	0.845	0.905	0.501	0.595	0.473	0.457	0.49
